Columns and labels:
[1] = Inhibition of rat brain tubulin polymerization
[2] = tested on: 1A9; assay: Antiproliferative activity against human 1A9 cells; assay type: functional, cell-based

| IC50 [1] [µM] | SMILES | IC50 [2] [µM] |
| --- | --- | --- |
| 2.7 | CC[C@H](C)[C@H](NC(=O)[C@H]1CCCN1C)C(=O)N[C@H](CC(=O)c1nc(C(=O)N[C@@H](Cc2ccccc2)CC(C)(C)C(=O)O)cs1)C(C)C | 3.2 |
| 4.4 | CC[C@H](C)[C@H](NC(=O)[C@H]1CCCCN1)C(=O)N[C@H](CC(=O)c1nc(C(=O)N[C@H](CCC(=O)O)Cc2ccccc2)cs1)C(C)C | > 50 |
| > 20 | CC[C@H](C)[C@H](NC(=O)[C@H]1CCCN1)C(=O)N[C@H](CC(=O)c1nc(C(=O)N[C@H](CCC(=O)O)Cc2ccccc2)cs1)C(C)C | > 50 |
| > 20 | CC[C@H](C)[C@H](NC(=O)[C@@H]1CCCCN1)C(=O)N[C@H](CC(=O)c1nc(C(=O)N[C@H](CCC(=O)O)Cc2ccccc2)cs1)C(C)C | > 50 |
| 0.7 | CN[C@H](C(=O)N[C@H](C(=O)N(C)[C@H](/C=C(\C)C(=O)O)C(C)C)C(C)(C)C)C(C)(C)c1ccccc1 [TALTOBULIN] | 0.0003 |
| 11 | CC[C@H](C)[C@H](NC(=O)[C@@H]1CCCN1C)C(=O)N[C@H](CC(=O)c1nc(C(=O)N[C@H](CCC(=O)O)Cc2ccccc2)cs1)C(C)C | 50 |
| > 20 | CC[C@H](C)[C@H](NC(=O)[C@@H]1CCCN1)C(=O)N[C@H](CC(=O)c1nc(C(=O)N[C@H](CCC(=O)O)Cc2ccccc2)cs1)C(C)C | > 50 |

Continued, compound first:

| SMILES | IC50 [1] [µM] | IC50 [2] [µM] |
| --- | --- | --- |
| CC[C@H](C)[C@H](NC(=O)[C@H]1CCCCN1C)C(=O)N[C@H](CC(=O)c1nc(C(=O)N[C@H](CCC(=O)O)Cc2ccccc2)cs1)C(C)C | 0.6 | 4 |
| CC[C@H](C)[C@H](NC(=O)[C@H]1CCCCN1C)C(=O)N[C@H](CC(=O)c1nc(C(=O)N[C@@H](Cc2ccccc2)CC(C)(C)C(=O)O)cs1)C(C)C | 1.5 | 0.3 |
| COc1ccc(/C=C\c2cc(OC)c(OC)c(OC)c2)cc1O [COMBRETASTATIN A4] |  | 0.0036 |
| CC[C@H](C)[C@H](NC(=O)[C@H]1CCCCN1C)C(=O)N(COC(=O)CC(C)C)[C@H](C[C@@H](OC(C)=O)c1nc(C(=O)N[C@@H](Cc2ccc(O)cc2)C[C@H](C)C(=O)O)cs1)C(C)C [TUBULYSIN-A] | 0.75 |  |
| CC[C@H](C)[C@H](NC(=O)[C@@H]1CCCCN1C)C(=O)N[C@H](CC(=O)c1nc(C(=O)N[C@H](CCC(=O)O)Cc2ccccc2)cs1)C(C)C | 13 | > 50 |
| CC[C@H](C)[C@H](NC(=O)[C@H]1CCCN1C)C(=O)N[C@H](CC(=O)c1nc(C(=O)N[C@H](CCC(=O)O)Cc2ccccc2)cs1)C(C)C | 2.3 | 24 |

From ChEMBL document CHEMBL1145613, “Tubulysin analogs incorporating desmethyl and dimethyl tubuphenylalanine derivatives” (Bioorg Med Chem Lett, 2008)
